Laboratory results as given in publication PMC9501810, “Bitter Peptides YFYPEL, [sequence], and [sequence], Released during Gastric Digestion of Casein, Stimulate Mechanisms of Gastric Acid Secretion via Bitter Taste Receptors TAS2R16 and TAS2R38” (Journal of Agricultural and Food Chemistry, 2022).
Where “and” joins values, the source holds several entries; their conditions need not be identical. Equal entries are not always repeated.

Experiments:
Assay type in all cases: cell-based, human
[1] = tested on: HGT-1 cells; experiment: Proton secretion assay (intracellular proton index IPX, SNARF-1-AM); conditions: for ΔIPX (change in intracellular proton index vs untreated cells): 10 min incubation in KRHB, n = 4–8; for ΔIPX (change in intracellular proton index vs untreated cells) / ΔIPX on co-incubation with probenecid: mean ± SEM; for proton secretion with peptide alone compared to untreated control cells: VAPFPEVF 17.5 µM, YFYPEL 0.03 µM, YQEPVLGPVRGPFPIIV 0.4 µM, p < 0.01; for proton secretion with peptide alone compared to untreated control cells / ΔIPX on co-incubation with probenecid: 10 min; for concentration with the lowest IPX value (minimum of curve fit; highest impact on secretory activity): curve fit over 0.01–200 µM proton secretion profile; for ΔIPX on co-incubation with probenecid: peptide (VAPFPEVF 17.5 µM, YFYPEL 0.03 µM, YQEPVLGPVRGPFPIIV 0.4 µM) + 1 mM probenecid, vs untreated cells
Description: (§1) The measurement of proton secretion from HGT-1 cells represents a well-established model for the identification of bitter compounds. By affecting extraoral bitter taste receptors with bitter compounds, a modulatory effect on proton secretion can be measured. For this purpose, cells were washed with KRHB and incubated with 3 μM of the intracellular pH indicator 1,5 carboxy-seminaphto-rhodafluor acetoxymethyl ester (SNARF-1-AM) under standard conditions. After 30 min, the cells were washed again with KRHB and then incubated with casein (0.01–10 μM equimolar related to the relevant forms αS1- and β-casein), hydrolysate (0.01–10 μM), or the peptides (0.01–200 μM). […] All substances were dissolved and diluted in KRHB. 1 mM histamine was used as a positive control. Measurements were performed using FlexStation 3 (Molecular Devices, USA). The excitation wavelength was 488 nm, and the emission wavelengths were 580 and 640 nm. For calibration (pH range 7.0–8.0), the intracellular and extracellular pH was adjusted with 2 μM nigericin in potassium buffer (20 mM NaCl, 110 mM KCl, 1 mM CaCl2, 1 mM MgSO4, 18 mM D-glucose, and 20 mM HEPES). The intracellular proton index (IPX) was calculated as the log2 value of the 580/640 ratio and compared with cells without treatment. Negative values represent increased secretion of protons and therefore stimulation of mechanisms regulating gastric acid secretion in HGT-1 cells. In contrast, positive values represent an inhibition of secretion compared to the untreated control.

[2] = tested on: TAS2R16; experiment: Proton secretion assay in TAS2R16 knock-down vs mock-transfected HGT-1 cells; conditions: TAS2R16kd vs mock-transfected HGT-1 cells, VAPFPEVF 17.5 µM, YFYPEL 0.03 µM, YQEPVLGPVRGPFPIIV 0.4 µM, 10 min, mean ± SEM; for decrease of the peptide-induced increase in proton secretion activity in TAS2R16kd cells: 72 h after 10 nM siRNA; for change of peptide-induced proton secretion, TAS2R16kd (Figure 5B–D): negative = reduction
Description: as §1
Expression of TAS2R16 and TAS2R38 was reduced by treatment of HGT-1 cells with siRNA. 100,000 cells per well were seeded 1 day before the experiment into a 24-well plate. All reagents and siRNA were purchased from Thermo Fisher Scientific, USA (cytotoxicity was excluded by MTT). Transfection was performed with Lipofectamine RNAiMAX in Opti-Medium according to the manufacturer’s protocol. 1–50 nM of different siRNA sequences (HSS121396 and HSS181763 for TAS2R16 and HSS108754 and HSS108756 for TAS2R38) and three different incubation times (24, 48, and 72 h) were tested. Mock control experiments were performed analogously with 1 or 10 nM Stealth RNAi siRNA negative control. To verify the functionality of the transfection process, verified 10 nM siRNA targeting MAPK1 (VHS40312) was used (positive control). The transfection rate was checked by qPCR as described in section 2.11. For the proton secretion assays, 20,000 cells per well were seeded 1 day before transfection into a black 96-well plate. After 72 h of transfection, proton secretion activities of TAS2R16 knock-down or TAS2R38 knock-down HGT-1 were compared with the mock transfected cells by means of ΔIPX.

[3] = tested on: TAS2R3; experiment: RT-qPCR gene expression of TAS2R3 in HGT-1 cells; conditions: VAPFPEVF 17.5 µM, YFYPEL 0.03 µM, YQEPVLGPVRGPFPIIV 0.4 µM, normalized to PPIA and GAPDH and untreated cells, mean, n = 3–5
Description: (§2) For mRNA expression analysis, 800,000 cells were seeded in a T25 cell culture flask (25 cm^2) 1 day before the experiment. After incubation with 17.5 μM […], 0.03 μM YFYPEL, or 0.4 μM […] for 15, 30, 60, and 120 min, RNA was isolated using the peqGOLD RNA Kit (VWR Peqlab, USA) following the manufacturer’s protocol. Determination of RNA concentration (A260/A280 between 2.03 and 2.09) was performed on a NanoDrop One^c (Thermo Fisher Scientific Inc., USA). RNA integrity number (RIN 9.9–10.0, version 2.6, assay class Eukaryote Total RNA Nano) was analyzed using a 2100 Bioanalyzer (Agilent Technologies, USA). Removal of gDNA and synthesis of cDNA were performed using the iScript gDNA Clear cDNA Synthesis Kit (BioRad, Feldkirchen, Germany) following the manufacturer’s protocol. Real-time-qPCR (RT-qPCR) was performed with 50 ng cDNA amplified with SsoAdvanced Universal SYBR Green Supermix (Bio-Rad Laboratories, Inc., USA). The sequences of the forward and reverse primers of the 25 TAS2Rs were taken from Liszt et al.([13]) (Supporting Information Table-SI 3). Verified primers for the TAS1Rs (TAS1R1: qHsaCID0013443; TAS1R2: qHsaCID0016106; TAS1R3: qHsaCED0002321) and for MAPK1 (qHsaCEP0050000) were obtained from Bio-Rad Laboratories. PPIA[37] and GAPDH[38] were used as reference genes. The effects of the peptides on gene expression were analyzed in comparison to untreated control cells.

[4] = tested on: TAS2R7; experiment: RT-qPCR gene expression of TAS2R7 in HGT-1 cells; conditions: VAPFPEVF 17.5 µM, YFYPEL 0.03 µM, YQEPVLGPVRGPFPIIV 0.4 µM, normalized to PPIA and GAPDH and untreated cells, mean, n = 3–5
Description: as §2

[5] = tested on: TAS2R20; experiment: RT-qPCR gene expression of TAS2R20 in HGT-1 cells; conditions: VAPFPEVF 17.5 µM, YFYPEL 0.03 µM, YQEPVLGPVRGPFPIIV 0.4 µM, normalized to PPIA and GAPDH and untreated cells, mean, n = 3–5
Description: as §2

[6] = tested on: TAS2R39; experiment: RT-qPCR gene expression of TAS2R39 in HGT-1 cells; conditions: VAPFPEVF 17.5 µM, YFYPEL 0.03 µM, YQEPVLGPVRGPFPIIV 0.4 µM, normalized to PPIA and GAPDH and untreated cells, mean, n = 3–5
Description: as §2

[7] = tested on: TAS2R41; experiment: RT-qPCR gene expression of TAS2R41 in HGT-1 cells; conditions: VAPFPEVF 17.5 µM, YFYPEL 0.03 µM, YQEPVLGPVRGPFPIIV 0.4 µM, normalized to PPIA and GAPDH and untreated cells, mean, n = 3–5
Description: as §2

[8] = tested on: TAS2R43; experiment: RT-qPCR gene expression of TAS2R43 in HGT-1 cells; conditions: VAPFPEVF 17.5 µM, YFYPEL 0.03 µM, YQEPVLGPVRGPFPIIV 0.4 µM, normalized to PPIA and GAPDH and untreated cells, mean, n = 3–5
Description: as §2

[9] = tested on: TAS2R45; experiment: RT-qPCR gene expression of TAS2R45 in HGT-1 cells; conditions: VAPFPEVF 17.5 µM, YFYPEL 0.03 µM, YQEPVLGPVRGPFPIIV 0.4 µM, normalized to PPIA and GAPDH and untreated cells, mean, n = 3–5
Description: as §2

[10] = tested on: TAS1R3; experiment: RT-qPCR gene expression of TAS1R3 in HGT-1 cells; conditions: 15/30/60/120 min, VAPFPEVF 17.5 µM, YQEPVLGPVRGPFPIIV 0.4 µM, n = 3
Description: as §2

| Sequence | proton secretion with peptide alone compared to untreated control cells [1] | concentration with the lowest IPX value (minimum of curve fit; highest impact on secretory activity) [1] [µM] | ΔIPX on co-incubation with probenecid [1] | decrease of the peptide-induced increase in proton secretion activity in TAS2R16kd cells [2] [%] | change of peptide-induced proton secretion, TAS2R16kd (Figure 5B–D) [2] [%] | change in gene expression of TAS2R3 ([3]; incubation 15 min) [fold change] | change in gene expression of TAS2R3 ([3]; incubation 30 min) [fold change] | change in gene expression of TAS2R3 ([3]; incubation 60 min) [fold change] | change in gene expression of TAS2R3 ([3]; incubation 120 min) [fold change] | change in gene expression of TAS2R7 ([4]; incubation 15 min) [fold change] | change in gene expression of TAS2R7 ([4]; incubation 30 min) [fold change] | change in gene expression of TAS2R7 ([4]; incubation 60 min) [fold change] | change in gene expression of TAS2R7 ([4]; incubation 120 min) [fold change] | change in gene expression of TAS2R20 ([5]; incubation 15 min) [fold change] | change in gene expression of TAS2R20 ([5]; incubation 30 min) [fold change] | change in gene expression of TAS2R20 ([5]; incubation 60 min) [fold change] | change in gene expression of TAS2R20 ([5]; incubation 120 min) [fold change] | change in gene expression of TAS2R39 ([6]; incubation 15 min) [fold change] | change in gene expression of TAS2R39 ([6]; incubation 30 min) [fold change] | change in gene expression of TAS2R39 ([6]; incubation 60 min) [fold change] | also measured |
| --- | --- | --- | --- | --- | --- | --- | --- | --- | --- | --- | --- | --- | --- | --- | --- | --- | --- | --- | --- | --- | --- |
| VAPFPEVF [bitter casein peptide αS1-CN25–32] | increased proton secretion | 17.5 | +0.043 ± 0.031 | 77.4 ± 10.1 | -77.4 ±10.1 | 0.70 | 1.56 | 1.06 | 1.72 | 1.20 | 0.71 | 1.05 | 0.62 | 0.70 | 1.33 | 0.87 | 1.78 | 0.39 | 1.37 | 0.55 | ΔIPX (change in intracellular proton index vs untreated cells) ([1]; 10 µM, negative = stimulated, positive = inhibited proton secretion): −0.286 ± 0.037; change in gene expression of TAS2R39 ([6]; incubation 120 min): 1.16 fold change; change in gene expression of TAS2R41 ([7]; incubation 15 min): 0.95 fold change; change in gene expression of TAS2R41 ([7]; incubation 30 min): 2.32 fold change; change in gene expression of TAS2R41 ([7]; incubation 60 min): 0.98 fold change; change in gene expression of TAS2R41 ([7]; incubation 120 min): 1.90 fold change; change in gene expression of TAS2R43 ([8]; incubation 15 min): 0.57 fold change; change in gene expression of TAS2R43 ([8]; incubation 30 min): 1.14 fold change; change in gene expression of TAS2R43 ([8]; incubation 60 min): 0.72 fold change; change in gene expression of TAS2R43 ([8]; incubation 120 min): 1.49 fold change; change in gene expression of TAS2R45 ([9]; incubation 15 min): 0.52 fold change; change in gene expression of TAS2R45 ([9]; incubation 30 min): 1.08 fold change; change in gene expression of TAS2R45 ([9]; incubation 60 min): 0.68 fold change; change in gene expression of TAS2R45 ([9]; incubation 120 min): 1.17 fold change; change in expression of TAS1R3 [10]: no significant effect |
| YQEPVLGPVRGPFPIIV [bitter casein peptide βA1/A2-CN193–209] | increased proton secretion | 0.4 | −0.020 ± 0.036 | 76.6 ± 9.9 | -76.6 ±9.9 | 1.03 | 1.89 | 1.61 | 1.40 | 0.49 | 0.74 | 0.70 | 1.82 | 0.95 | 1.42 | 1.38 | 1.31 | 0.53 | 1.16 | 0.73 | ΔIPX (change in intracellular proton index vs untreated cells) ([1]; 0.1 µM, IPX = log2 of 580/640 ratio, negative = stimulated proton secretion): −0.203 ± 0.048; change in gene expression of TAS2R39 ([6]; incubation 120 min): 0.53 fold change; change in gene expression of TAS2R41 ([7]; incubation 15 min): 1.31 fold change; change in gene expression of TAS2R41 ([7]; incubation 30 min): 1.71 fold change; change in gene expression of TAS2R41 ([7]; incubation 60 min): 2.95 fold change; change in gene expression of TAS2R41 ([7]; incubation 120 min): 4.61 fold change and 4.61 ± 2.03 fold change; change in gene expression of TAS2R43 ([8]; incubation 15 min): 0.69 fold change; change in gene expression of TAS2R43 ([8]; incubation 30 min): 1.44 fold change; change in gene expression of TAS2R43 ([8]; incubation 60 min): 1.15 fold change; change in gene expression of TAS2R43 ([8]; incubation 120 min): 0.88 fold change; change in gene expression of TAS2R45 ([9]; incubation 15 min): 0.63 fold change; change in gene expression of TAS2R45 ([9]; incubation 30 min): 1.25 fold change; change in gene expression of TAS2R45 ([9]; incubation 60 min): 1.06 fold change; change in gene expression of TAS2R45 ([9]; incubation 120 min): 0.84 fold change; change in expression of TAS1R3 [10]: no significant effect |
